The results in this text go back to US20240262826A1, “WILD TYPE KIT INHIBITORS” (Blueprint Medicines Corporation, priority 2022, published 2024).

In one data set the target is wild type c-kit (Homo sapiens (Human), UniProt P10721). Kind of data set: PathScan phospho c-kit (Tyr719) sandwich ELISA in SCF-stimulated M-07e cells (pKIT assay). It is filed as cell-based. The settings on record: ELISA assay (values not marked *). In a few lines:
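Serum- and GM-CSF-starved M-07e cells (4 h) pretreated 60 min at 37 °C with an 8-point compound series in duplicate (0.25% DMSO), then stimulated with human SCF (500 ng/mL stock) 10 min at room temperature. Lysate c-kit Tyr719 phosphorylation quantified by sandwich ELISA with TMB read-out; IC50 from 4-parameter logistic fit.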
In general terms: ELISA stands for enzyme-linked immunosorbent assay.

Data set [1] concerns the target human P-glycoprotein (P-gp, MDR1) (Homo sapiens (Human), UniProt P08183). Kind of data set: MDCK-MDR1 cell monolayer drug transport assay (P-gp efflux ratio). The class given is in vitro ADME. Conditions: pH 7.4, MDCK-MDR1 cells, 1 uM concentration of compound, read-out: Pgp Efflux Ratio, 1 uM. As for the experimental part: The potential for compounds prepared according to the examples to be substrates of P-gp was evaluated using in vitro on Multidrug Resistance Mutation 1-Mardin-Darby Canine Kidney (MDCK-MDR1)) (Mardin-Darby Canine Kidney) cell monolayers overexpressing P-gp grown on permeable supports.
Preparation for cell seeding: MDCK-MDR1 cell culture medium consisting of Dulbecco's Modified Eagle's Medium (DMEM) with high glucose and L-glutamine supplemented with: 10% FBS, 0.1 mg/mL of streptomycin, 0.6 μg/mL of Kanamycin sulfate and 100 units of penicillin was prepared. 50 μL of culture medium was added to each well of the Transwell insert. The Transwell insert was removed from the reservoir and 25 mL of culture medium was added. After incubation at 37° C., 5% CO2 for 1 hour, the plates were ready for cell seeding. The cells were cultivated in T-75 flasks in a cell culture incubator set at 37° C., 5% CO2, 95% relative humidity until they reached 80-90% confluence before detaching and splitting. The cultivated cells were rinsed in T-75 flasks with 5 mL PBS and aspirated off, and then 1.5 mL trypsin/EDTA was added and incubated at 37° C. for approximately 5 to 10 minutes or until the cells detach and float. The trypsin/EDTA was inactived by adding excess serum containing medium. The cell suspension was transferred to a conical tube and the cells pelleted by centrifugation at 120×g for 10 minutes. The cells were resuspended in seeding medium at a density of 1.56×10^6 cells/mL. This cell concentration was used to seed 5.45×10^5 cells/cm^2.
Seeding and feeding of MDCK-MDR1 cells into transwell plates: 50 μL of the above cell suspension was added to each well of a previously prepared Transwell plate and the plate was incubated for 4-8 days, replacing the medium every other day beginning no sooner than 48 hours after initial plating. The medium must be replaced on the day before conducting the experiment, and the procedure for medium changes was carried out as follows. The plate was removed from the incubator and placed in a hood. The medium was aspirated from a reservoir and each Transwell was inserted. 100 μL of culture medium was added to each well of the Transwell inserts and 25 mL of culture medium to reservoir tray. The plate was returned to the incubator.
Assessment of cell monolayer integrity: When the 4-day cultured MDCK-MDR1 cells reached confluence and were differentiated, the medium was removed from the reservoir and Transwell inserts. 100 μL of prewarmed culture medium was added to each transwell insert and 25 mL was added to the reservoir tray. The electrical resistance across the monolayer was measured using a Millicell Epithelial Volt-Ohm measuring system. The electrical resistance for each well was measured and then the plate was returned to the incubator. TEER values were calculated using this formula: TEER measurement (ohms)×Area of membrane (cm2)=TEER value (ohm cm2). Any monolayer with a TEER value <42 ohms·cm2, indicating poor monolayer formation, was discarded.
Performing the drug transport assay: The MDCK-MDR1 plate was removed from the incubator and the monolayer was washed, exchanging the volume two times using pre-warmed HBSS (Hank's balanced salt solution) (10 mM HEPES, pH 7.4). The plate was then incubated at 37° C. for 30 minutes. A 1 μM compound working solution was prepared as follows: Added […] of stock solution (10 mM in DMSO) of test compound and control compounds (Metoprolol, Prazosin and Imatinib) in one 96 well plate, then added 98 μL of DMSO into the same well to obtain 0.2 mM stock solutions (note a stock solution was further diluted 1:10 for eventually making a 0.1 uM compound working solution). Transfered 3 μL of 0.2 mM solution into 597 μL of transport buffer in one 96 well plate to prepare the 1 μM compound working solution. The plate was shaken at 1000 rpm for 10 min.

SMILES strings stand for the structures.

Sequence of human P-glycoprotein (P-gp, MDR1) (P08183 whole entry): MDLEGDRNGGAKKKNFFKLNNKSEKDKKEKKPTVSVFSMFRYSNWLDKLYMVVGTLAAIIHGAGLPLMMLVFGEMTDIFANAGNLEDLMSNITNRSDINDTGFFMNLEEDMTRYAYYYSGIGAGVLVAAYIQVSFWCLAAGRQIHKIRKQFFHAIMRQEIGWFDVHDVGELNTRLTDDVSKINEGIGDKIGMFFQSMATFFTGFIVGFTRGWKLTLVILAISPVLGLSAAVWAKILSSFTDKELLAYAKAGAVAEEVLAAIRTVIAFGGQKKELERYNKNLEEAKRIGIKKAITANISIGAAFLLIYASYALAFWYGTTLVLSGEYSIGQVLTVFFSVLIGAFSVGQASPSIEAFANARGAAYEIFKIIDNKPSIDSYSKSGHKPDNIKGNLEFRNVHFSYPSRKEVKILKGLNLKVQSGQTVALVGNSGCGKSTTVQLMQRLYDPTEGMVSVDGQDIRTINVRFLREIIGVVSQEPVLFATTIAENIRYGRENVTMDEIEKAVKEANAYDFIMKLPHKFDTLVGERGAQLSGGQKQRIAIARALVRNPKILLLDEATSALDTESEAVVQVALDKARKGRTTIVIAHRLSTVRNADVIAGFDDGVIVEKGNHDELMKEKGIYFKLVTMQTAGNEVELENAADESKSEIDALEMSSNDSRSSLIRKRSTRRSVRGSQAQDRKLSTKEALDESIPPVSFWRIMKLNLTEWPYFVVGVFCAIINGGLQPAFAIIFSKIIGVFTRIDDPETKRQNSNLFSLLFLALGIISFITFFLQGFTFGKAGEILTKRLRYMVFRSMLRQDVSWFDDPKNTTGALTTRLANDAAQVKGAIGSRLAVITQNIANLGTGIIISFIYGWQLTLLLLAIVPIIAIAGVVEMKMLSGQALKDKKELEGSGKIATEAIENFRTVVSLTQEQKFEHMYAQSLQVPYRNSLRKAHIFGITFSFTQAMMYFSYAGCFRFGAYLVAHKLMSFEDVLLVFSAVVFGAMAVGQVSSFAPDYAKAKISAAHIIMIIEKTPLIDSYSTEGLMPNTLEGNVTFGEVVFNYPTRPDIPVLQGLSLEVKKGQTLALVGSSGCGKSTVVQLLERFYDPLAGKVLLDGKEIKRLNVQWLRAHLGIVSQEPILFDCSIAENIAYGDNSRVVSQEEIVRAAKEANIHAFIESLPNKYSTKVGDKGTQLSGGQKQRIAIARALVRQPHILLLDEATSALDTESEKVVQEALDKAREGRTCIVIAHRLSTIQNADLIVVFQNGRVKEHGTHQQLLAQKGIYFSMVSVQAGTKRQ
Sequence of wild type c-kit (P10721 26-976): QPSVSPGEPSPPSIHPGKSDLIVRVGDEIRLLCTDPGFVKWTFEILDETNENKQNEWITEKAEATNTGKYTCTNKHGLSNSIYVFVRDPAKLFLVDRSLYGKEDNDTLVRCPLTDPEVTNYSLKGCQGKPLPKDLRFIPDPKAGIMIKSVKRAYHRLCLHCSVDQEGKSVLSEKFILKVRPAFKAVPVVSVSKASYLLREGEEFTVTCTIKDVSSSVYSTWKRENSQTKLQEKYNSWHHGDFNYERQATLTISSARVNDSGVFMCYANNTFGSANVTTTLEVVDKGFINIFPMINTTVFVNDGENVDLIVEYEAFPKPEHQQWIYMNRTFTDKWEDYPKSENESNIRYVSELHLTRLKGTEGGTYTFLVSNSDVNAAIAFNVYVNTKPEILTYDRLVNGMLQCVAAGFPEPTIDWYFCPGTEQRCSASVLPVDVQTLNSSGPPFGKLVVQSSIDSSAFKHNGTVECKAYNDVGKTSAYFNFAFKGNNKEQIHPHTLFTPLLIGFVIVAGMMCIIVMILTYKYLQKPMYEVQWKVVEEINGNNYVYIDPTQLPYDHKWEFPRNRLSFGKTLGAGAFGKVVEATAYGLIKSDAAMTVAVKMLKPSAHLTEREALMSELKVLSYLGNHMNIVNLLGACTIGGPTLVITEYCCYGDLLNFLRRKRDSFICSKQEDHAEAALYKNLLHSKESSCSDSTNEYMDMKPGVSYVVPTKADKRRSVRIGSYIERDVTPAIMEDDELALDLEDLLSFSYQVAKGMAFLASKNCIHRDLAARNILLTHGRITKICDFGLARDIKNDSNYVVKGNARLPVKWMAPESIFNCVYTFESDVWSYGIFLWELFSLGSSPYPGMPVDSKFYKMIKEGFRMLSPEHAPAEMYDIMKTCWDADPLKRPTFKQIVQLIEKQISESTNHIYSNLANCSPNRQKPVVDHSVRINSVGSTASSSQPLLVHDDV

As a reminder, the IC50 is the concentration that inhibits the measured activity by half. Low values mean higher potency, high ones lower potency. For the compound `Cc1ccc(-c2nnn([C@H]3C[C@@H](C(F)(F)F)C3)n2)cc1NC(=O)c1cnn2ccc(N3CC(C)(O)C3)cc12` [Example 107, 5-(3-hydroxy-3-methylazetidin-1-yl)-N-(2-methyl-5-(2-((1s,3s)-3-(trifluoromethyl)cyclobutyl)-2H-tetrazol-5-yl)phenyl)pyrazolo[1,5-a]pyridine-3-carboxamide], half-maximal inhibition on wild type c-kit (IC50) was put at 5.5 nM. For the same compound, the efflux ratio at 2 h, 1 µM in data set [1] turned out to be 28.9.

In turn, `CCOC(=O)N1CC(n2nnc(-c3ccc(C)c(NC(=O)c4cnn5ccc(NCCOC)cc45)c3)n2)C1` [Example 149, ethyl 3-(5-(3-(5-((2-methoxyethyl)amino)pyrazolo[1,5-a]pyridine-3-carboxamido)-4-methylphenyl)-2H-tetrazol-2-yl)azetidine-1-carboxylate] registered an IC50 against wild type c-kit of 38.6 nM. Further, in data set [1], the efflux ratio at 2 h, 1 µM was found to be 30.1.

The compound `COCCNc1ccn2ncc(C(=O)Nc3cc(-c4nnn(C5CC(F)C5)n4)ccc3C)c2c1` (centres unmarked) [Example 151, N-(5-(2-(3-fluorocyclobutyl)-2H-tetrazol-5-yl)-2-methylphenyl)-5-((2-methoxyethyl)amino)pyrazolo[1,5-a]pyridine-3-carboxamide] displayed an IC50 on wild type c-kit of 4.1 nM. Further, the efflux ratio at 2 h, 1 µM in data set [1] was determined as 4.8.

In turn, `COCCS(=O)(=O)N1CC(n2nnc(-c3ccc(C)c(NC(=O)c4cnn5ccccc45)c3)n2)C1` [Example 178, N-(5-(2-(1-((2-methoxyethyl)sulfonyl)azetidin-3-yl)-2H-tetrazol-5-yl)-2-methylphenyl)pyrazolo[1,5-a]pyridine-3-carboxamide] yielded an IC50 against wild type c-kit of 17.6 nM. Further, the efflux ratio at 2 h, 1 µM in data set [1] came out at 4.7.

Turning to `COCCNc1ccn2ncc(C(=O)Nc3cc(-c4nnn([C@H]5C[C@@H](C(F)(F)F)C5)n4)ccc3C)c2c1` [Example 119, 5-((2-methoxyethyl)amino)-N-(2-methyl-5-(2-((1s,3s)-3-(trifluoromethyl)cyclobutyl)-2H-tetrazol-5-yl)phenyl)pyrazolo[1,5-a]pyridine-3-carboxamide or 5-((2-methoxyethyl)amino)-N-(2-methyl-5-(2-((1r,3r)-3-(trifluoromethyl)cyclobutyl)-2H-tetrazol-5-yl)phenyl)pyrazolo[1,5-a]pyridine-3-carboxamide], 2.3 nM corresponded to half-maximal inhibition at wild type c-kit (IC50). For the same compound, the efflux ratio at 2 h, 1 µM in data set [1] came out at 3.9.

The compound `Cc1ccc(-c2nnn(C3CC(F)(F)C3)n2)cc1NC(=O)c1cnn2ccc(N3CCC(C)(O)CC3)cc12` [Example 61, N-(5-(2-(3,3-difluorocyclobutyl)-2H-tetrazol-5-yl)-2-methylphenyl)-5-(4-hydroxy-4-methylpiperidin-1-yl)pyrazolo[1,5-a]pyridine-3-carboxamide] returned a 50% inhibitory concentration (IC50) against wild type c-kit of 3.2 nM. Also, the efflux ratio at 2 h, 1 µM in data set [1] was found to be 16.4.

As for `COC(=O)N1CC(n2nnc(-c3ccc(C)c(NC(=O)c4cnn5ccc(NCC6CCO6)cc45)c3)n2)C1` (centres unmarked) [Example 95, methyl 3-(5-(4-methyl-3-(5-((oxetan-2-ylmethyl)amino)pyrazolo[1,5-a]pyridine-3-carboxamido)phenyl)-2H-tetrazol-2-yl)azetidine-1-carboxylate], at wild type c-kit, the IC50 stood at 30.5 nM. Also, in data set [1], the efflux ratio at 2 h, 1 µM is 21.5.

`COC(=O)N1CC(n2nnc(-c3ccc(C)c(NC(=O)c4cnn5ccc(N6CC[C@H]6CO)cc45)c3)n2)C1` [Example 90, methyl (S)-3-(5-(3-(5-(2-(hydroxymethyl)azetidin-1-yl)pyrazolo[1,5-a]pyridine-3-carboxamido)-4-methylphenyl)-2H-tetrazol-2-yl)azetidine-1-carboxylate]: half-maximal inhibition on wild type c-kit (IC50) was put at 87.7 nM. Further, the efflux ratio at 2 h, 1 µM in data set [1] came out at 33.9.

Consider `COC(=O)N1CC(n2nnc(-c3ccc(C)c(NC(=O)c4cnn5ccc(N6CC[C@@H](N(C)C)C6)cc45)c3)n2)C1` [Example 97, methyl (R)-3-(5-(3-(5-(3-(dimethylamino)pyrrolidin-1-yl)pyrazolo[1,5-a]pyridine-3-carboxamido)-4-methylphenyl)-2H-tetrazol-2-yl)azetidine-1-carboxylate], for which the midpoint of inhibition on wild type c-kit, the IC50, lay at 112 nM. In addition, in data set [1], the efflux ratio at 2 h, 1 µM amounted to 23.2.

At wild type c-kit, `COC(=O)N1CC(n2nnc(-c3ccc(C)c(NC(=O)c4cnn5ccc(NCC(C)(C)OC)cc45)c3)n2)C1` [Example 96, methyl 3-(5-(3-(5-((2-methoxy-2-methylpropyl)amino)pyrazolo[1,5-a]pyridine-3-carboxamido)-4-methylphenyl)-2H-tetrazol-2-yl)azetidine-1-carboxylate] had an IC50 of 37.1 nM. Moreover, the efflux ratio at 2 h, 1 µM in data set [1] was 9.5.

In turn, `COCCNc1cc2c(C(=O)Nc3cc(-c4nnn(C5CN(C(=O)OC)C5)n4)ccc3C)cnn2cc1F` [Example 171, methyl 3-(5-(3-(6-fluoro-5-((2-methoxyethyl)amino)pyrazolo[1,5-a]pyridine-3-carboxamido)-4-methylphenyl)-2H-tetrazol-2-yl)azetidine-1-carboxylate] gave an IC50 against wild type c-kit of 34.3 nM. Also, the efflux ratio at 2 h, 1 µM in data set [1] was determined as 6.

Compound `Cc1ccc(-c2nnn(C3CC3)n2)cc1NC(=O)c1cnn2ccc(-c3cnn(CCCN4CCOCC4)c3)cc12` [Example 220, N-(5-(2-cyclopropyl-2H-tetrazol-5-yl)-2-methylphenyl)-5-(1-(3-morpholinopropyl)-1H-pyrazol-4-yl)pyrazolo[1,5-a]pyridine-3-carboxamide] had an IC50 against wild type c-kit of 1.8 nM. Moreover, the efflux ratio at 2 h, 1 µM in data set [1] was determined as 12.4.

As to `Cc1cc(F)c(-c2nnn([C@H]3C[C@@H](C(F)(F)F)C3)n2)cc1NC(=O)c1cnn2ccc(N3CC(C)(O)C3)cc12` [Example 64, N-(4-fluoro-2-methyl-5-(2-((1s,3s)-3-(trifluoromethyl)cyclobutyl)-2H-tetrazol-5-yl)phenyl)-5-(3-hydroxy-3-methylazetidin-1-yl)pyrazolo[1,5-a]pyridine-3-carboxamide], on wild type c-kit, 3.7 nM corresponded to half-maximal inhibition (IC50). The efflux ratio at 2 h, 1 µM in data set [1] was found to be 39.3.

Consider `Cc1cc(Cl)c(NC(=O)c2cnn3ccc(-c4cn(CC5(O)CCOCC5)nc4C)cc23)cc1-c1nnn(C2CC2)n1` [Example 235, N-(2-chloro-5-(2-cyclopropyl-2H-tetrazol-5-yl)-4-methylphenyl)-5-(1-((4-hydroxytetrahydro-2H-pyran-4-yl)methyl)-3-methyl-1H-pyrazol-4-yl)pyrazolo[1,5-a]pyridine-3-carboxamide], for which 1.6 nM corresponded to half-maximal inhibition against wild type c-kit (IC50). Besides, the efflux ratio at 2 h, 1 µM in data set [1] is 3.9.

As for `Cc1cc(F)c(-c2nnn(C3CC3)n2)cc1NC(=O)c1cnn2ccc(-c3cnn(CC(C)(C)O)c3)cc12` [Example 207, N-(5-(2-cyclopropyl-2H-tetrazol-5-yl)-4-fluoro-2-methylphenyl)-5-(1-(2-hydroxy-2-methylpropyl)-1H-pyrazol-4-yl)pyrazolo[1,5-a]pyridine-3-carboxamide], the IC50 against wild type c-kit was 1.4 nM. The efflux ratio at 2 h, 1 µM in data set [1] stood at 16.2.

Compound `Cc1ccc(-n2nnc([C@@H]3CC3(F)F)n2)cc1NC(=O)c1cnn2ccc(-c3cnn(CCO)c3)cc12` (single isomer, unassigned) [Example 233, (S)-N-(5-(5-(2,2-difluorocyclopropyl)-2H-tetrazol-2-yl)-2-methylphenyl)-5-(1-(2-hydroxyethyl)-1H-pyrazol-4-yl)pyrazolo[1,5-a]pyridine-3-carboxamide or (R)-N-(5-(5-(2,2-difluorocyclopropyl)-2H-tetrazol-2-yl)-2-methylphenyl)-5-(1-(2-hydroxyethyl)-1H-pyrazol-4-yl)pyrazolo[1,5-a]pyridine-3-carboxamide] returned a half-maximal inhibitory concentration (IC50) against wild type c-kit of 2.2 nM. Also, the efflux ratio at 2 h, 1 µM in data set [1] was 6.3.
